# According to patent US10995068B2, “Synthetic sphingolipid-like molecules, drugs, methods of their synthesis and methods of treatment” (The Regents of the University of California, priority 2015, dated 2021):
# Legend:
# SW620 cells = assay: Phosphorylation in intact cells by UPLC-MS/MS, SW620; assay type: in vitro ADME, human; details: 10 μM, 16 h incubation, percent of total compound recovered by UPLC-MS/MS
# Procedure: Mass spectrometric quantification: One million PC3 or 5 million SW620 cells in one well of a 6 well plate are treated with 10 μM FTY720 or 5 for 16 h. Media (100 μl) is removed from the well and combined with 100 μl of acetonitrile. Cells are collected by scraping, pelleted, and re-suspended in 100 μl of HPLC-grade water followed by the addition of 100 μl acetonitrile. Seventy-five nanograms of the compounds not being quantified (FTY720 and FTY720-P for analysis of the phosphorylation of 5, or 5 and 5-P for the analysis of FTY720/FYT720-P) is added to serve as an internal standard to allow correction for loss of compound during sample preparation. […] Insoluble material is again removed by centrifugation and the supernatant analyzed for compound content. Twenty microliters of this de-proteinated sample is analyzed by UPLC-MS/MS (Waters Micromass Quattro Premier XE) equipped with a C18 reversed phase column (Waters) using an acetonitrile (+0.2% acetic acid) gradient elution. […] The cone voltages are 30V for FTY720 and 5, and 20V for FTY720-P and 5-P. A standard curve is generated using pure compounds to allow for quantification; standard curves were linear from 50-1000 ng/ml with an R^2 of 0.98 or greater. […]
# [1] = system: autochthonous prostate tumor (pDKO); assay: pDKO autochthonous prostate cancer mouse model; assay type: in vivo
# Procedure: To determine the sensitivity, SH-BC-893 was evaluated in a validated genetically-engineered mouse model for invasive castration-resistant prostate cancer that lacks p53 and PTEN expression exclusively in the prostate (pDKO) (Wu X, et al. Am J Clin Exp Urol. 2014; 2(2):111-20; Schwarzenböck S, et al. Theranostics. 2012; 2(3):318-330; Chen Z, et al. Nature. 2005; 436(7051):725-730; the disclosures of which are herein incorporated by reference). […] SH-BC-893, however, still produced a phenotype consistent with starvation as the bound NADH fraction increased and cell permeant nutrients protected mPCE cells from death (FIGS. 65A and 65C). Prostate cancer cells depend on exogenous LDL for growth and survival. […] Ceramide and YM201636 both reduced surface LDLr levels, but LDLr still accumulated in different intracellular compartments (FIG. 66A). Consistent with their ability to block lysosomal fusion (FIG. 61), both YM201636 and SH-BC-893 reduced LDL co-localization with Lysotracker Blue (FIGS. 65F and 65G). In keeping with the inhibition of LDL degradation in lysosomes, cellular lipid droplet content was inversely correlated with the extent of vacuolation (FIG. 66B). In summary, sphingolipid-like compounds, such as SH-BC-893, starve slow-growing neoplasms, such prostate cancer, by down-regulating nutrient transporters and blocking lysosomal nutrient generation.
# The ability of starvation-inducing sphingolipid-like drugs to affect the growth of slow growing or autochthonous neoplasms was also evaluated. In C57BL/6 mice bearing mPCE subcutaneous isografts, 60 mg/kg SH-BC-893 was given daily by gavage and slowed tumor growth by 60% similar to results with SW620 xenografts dosed with 20 mg/kg i.p. (FIGS. 53G-I and 65I). At 120 mg/kg, SH-BC-893 inhibited prostate tumor growth by more than 90% (FIG. 65I). […] Akt activity was slightly elevated by SH-BC-893 consistent with loss of TORC1-mediated negative feedback. Thus, sphingolipid-like compounds, such as SH-BC-893, are effective against neoplasms with distinct molecular defects and metabolic characteristics.
# SH-BC-893 produces equivalent transporter loss and vacuolation in normal and transformed cells and therefore also limits the access of normal cells to nutrients (FIGS. 51C, 51E, 56B and 56C). […] The lack of toxicity to normal tissues is consistent with the finding that non-transformed cells can adapt to nutrient stress that triggers a bioenergetic crisis in less metabolically flexible tumor cells (FIGS. 53D and 53E).
# In vivo studies. Experiments conducted in mice were performed in accordance with the Institutional Animal Care and Use Committee of University of California, Irvine following a power analysis conducted in consultation with the Biostatistics Shared Resource of Chao Family Comprehensive Cancer Center at UCI. Xenografts were produced by injecting 5 million cells subcutaneously in the flank of 10-16 week-old male or female NSG mice. Prostate isografts were produced in the same manner but in male 6-8 wk old C57BL/6 mice. Once tumors reached 100 mm^3, SH-BC-893 was administered by intraperitoneal (i.p.) injection or oral gavage as indicated. Tumor volume was calculated using the formula, volume (mm^3)=length [mm]×(width [mm])^2×0.52; BLI was measured using an IVIS imaging system (Xenogen). To generate pDKO mice on the C57BL6 background, Pten^flox mice (stock No. 0045597) and p53^flox mice (stock No. 008462) were obtained from the Jackson Laboratory and PB-Cre4 mice (strain #01XF5) were obtained from the NCI-Frederick Mouse Repository. Age-matched cohorts of pDKO males were generated by in vitro fertilization executed with the assistance of the Transgenic Mouse Facility at UC Irvine. Treatment was begun at 6-7 wks of age. […] Tumor samples were processed and imaged by the Pathology Research Services Core Facility at UC Irvine. Blood chemistry was analyzed by IDEXX BioResearch and complete blood counts were performed using a Hemavet hematology system.
compound,measurement,setting,value
"CCCCCCCCc1ccc([C@H]2CCN[C@@H]2CO)cc1.Cl [Compound 5, (2S,3R)-2-(hydroxymethyl)-3-(4-octylphenyl)Pyrrolidinium chloride]",efficiency of phosphorylation in intact cells,SW620 cells,phosphorylated slightly more efficiently than FTY720
same,histopathology of intestinal crypts,[1]; mice treated with 120 mg/kg for 11 weeks,normal
same,weight gain,[1]; pDKO mice,gained less weight than untreated mice
same,decrease of autochthonous tumor growth,"[1]; pDKO mice, 60 mg/kg",62%
same,decrease of autochthonous tumor growth,"[1]; pDKO mice, 120 mg/kg",82%
same,"prostate tumor progression, histology","[1]; pDKO mice, treated mice exclusively exhibited prostatic intraepithelial neoplasia",slowed prostate tumor progression
same,TORC1-dependent ribosomal protein S6 phosphorylation in tumors,[1]; treated prostate tumors,reduced
